Experiments:
Format in all cases: cell-based, human
[1] = tested on: MOLT-4; assay: NCI-60 screen, Leukemia; conditions: 10 μM
Experimental: (§1) Several compounds were tested at single concentrations (10 μM) against 59 different human tumor cell lines, representing leukemia, melanoma and cancers of the lung, colon, brain, ovary, breast, prostate, and kidney (see, Table 3). The human tumor cell lines of the cancer screening panel were grown in RPMI 1640 medium containing 5% fetal bovine serum and 2 mM L-glutamine. For a typical screening experiment, cells were inoculated into 96 well microtiter plates in 100 μL at plating densities ranging from 5,000 to 40,000 cells/well depending on the doubling time of individual cell lines. After cell inoculation, the microtiter plates were incubated at 37° C., 5% CO2, 95% air and 100% relative humidity for 24 hours prior to addition of the compounds.
(§2) After 24 hours, two plates of each cell line were fixed in situ with TCA, to represent a measurement of the cell population for each cell line at the time of drug addition (Tz). Compounds were solubilized in dimethyl sulfoxide at 400-fold the desired final maximum test concentration and stored frozen prior to use. At the time of drug addition, an aliquot of frozen concentrate was thawed and diluted to twice the desired final maximum test concentration with complete medium containing 50 μg/ml gentamicin. Additional four, 10-fold or ½ log serial dilutions were made to provide a total of five compound concentrations plus control. Aliquots of 100 μl of these different drug dilutions were added to the appropriate microtiter wells already containing 100 μl of medium, resulting in the required final compound concentrations.
(§3) Following drug addition, the plates were incubated for an additional 48 hours at 37° C., 5% CO2, 95% air, and 100% relative humidity. For adherent cells, the assay was terminated by the addition of cold TCA. Cells were fixed in situ by the gentle addition of 50 μl of cold 50% (w/v) TCA (final concentration, 10% TCA) and incubated for 60 minutes at 4° C. The supernatant was discarded, and the plates were washed five times with tap water and air dried. Sulforhodamine B (SRB) solution (100 μl) at 0.4% (w/v) in 1% acetic acid was added to each well, and plates were incubated for 10 minutes at room temperature. After staining, unbound dye was removed by washing five times with 1% acetic acid and the plates were air dried. Bound stain was subsequently solubilized with 10 mM trizma base, and the absorbance was read on an automated plate reader at a wavelength of 515 nm. For suspension cells, the methodology was the same except that the assay was terminated by fixing settled cells at the bottom of the wells by gently adding 50 μl of 80% TCA (final concentration, 16% TCA). Using the seven absorbance measurements (time zero, (Tz), control growth, (C), and test growth in the presence of drug at the five concentration levels (Ti)), the percentage growth was calculated at each of the compound concentrations levels. Percentage growth inhibition was calculated as:
(§4) [(Ti−Tz)/(C−Tz)]×100 for concentrations for which Ti>/=Tz
(§5) [(Ti−Tz)/Tz]×100 for concentrations for which Ti<Tz.
(§6) Three dose response parameters were calculated for each compound. Growth inhibition of 50% (GI50) was calculated from [(Ti−Tz)/(C−Tz)]×100=50, which is the compound concentration resulting in a 50% reduction in the net protein increase (as measured by SRB staining) in control cells during the compound incubation. The compound concentration resulting in total growth inhibition (TGI) was calculated from Ti=Tz. The LC50 (concentration of compound resulting in a 50% reduction in the measured protein at the end of the compound treatment as compared to that at the beginning) indicating a net loss of cells following treatment was calculated from [(Ti−Tz)/Tz]×100=−50. Values were calculated for each of these three parameters if the level of activity was reached; however, if the effect was not reached or was exceeded, the value for that parameter was expressed as greater or less than the maximum or minimum concentration tested.

[2] = tested on: K-562; assay: NCI-60 screen, Leukemia; conditions: 10 μM
Experimental: as §1, §2, §3, §4, §5, §6

[3] = tested on: SR; assay: NCI-60 screen, Leukemia; conditions: 10 μM
Experimental: as §1, §2, §3, §4, §5, §6

[4] = tested on: CCRF-CEM; assay: NCI-60 screen, Leukemia; conditions: 10 μM
Experimental: as §1, §2, §3, §4, §5, §6

[5] = tested on: HL-60(TB); assay: NCI-60 screen, Leukemia; conditions: 10 μM
Experimental: as §1, §2, §3, §4, §5, §6

[6] = tested on: SN12C; assay: NCI-60 screen, Renal Cancer; conditions: 10 μM
Experimental: as §1, §2, §3, §4, §5, §6

[7] = tested on: TK-10; assay: NCI-60 screen, Renal Cancer; conditions: 10 μM
Experimental: as §1, §2, §3, §4, §5, §6

[8] = tested on: ACHN; assay: NCI-60 screen, Renal Cancer; conditions: 10 μM
Experimental: as §1, §2, §3, §4, §5, §6

[9] = tested on: RXF 393; assay: NCI-60 screen, Renal Cancer; conditions: 10 μM
Experimental: as §1, §2, §3, §4, §5, §6

[10] = tested on: A498; assay: NCI-60 screen, Renal Cancer; conditions: 10 μM
Experimental: as §1, §2, §3, §4, §5, §6

[11] = tested on: CAKI-1; assay: NCI-60 screen, Renal Cancer; conditions: 10 μM
Experimental: as §1, §2, §3, §4, §5, §6

[12] = tested on: UO-31; assay: NCI-60 screen, Renal Cancer; conditions: 10 μM
Experimental: as §1, §2, §3, §4, §5, §6

[13] = tested on: HCC-2998; assay: NCI-60 screen, Colon Cancer; conditions: 10 μM
Experimental: as §1, §2, §3, §4, §5, §6

[14] = tested on: KM12; assay: NCI-60 screen, Colon Cancer; conditions: 10 μM
Experimental: as §1, §2, §3, §4, §5, §6

[15] = tested on: HCT-116; assay: NCI-60 screen, Colon Cancer; conditions: 10 μM
Experimental: as §1, §2, §3, §4, §5, §6

[16] = tested on: HCT-15; assay: NCI-60 screen, Colon Cancer; conditions: 10 μM
Experimental: as §1, §2, §3, §4, §5, §6

[17] = tested on: COLO 205; assay: NCI-60 screen, Colon Cancer; conditions: 10 μM
Experimental: as §1, §2, §3, §4, §5, §6

[18] = tested on: HT29; assay: NCI-60 screen, Colon Cancer; conditions: 10 μM
Experimental: as §1, §2, §3, §4, §5, §6

[19] = tested on: SW-620; assay: NCI-60 screen, Colon Cancer; conditions: 10 μM
Experimental: as §1, §2, §3, §4, §5, §6

[20] = tested on: MDA-MB-435; assay: NCI-60 screen, Melanoma; conditions: 10 μM
Experimental: as §1, §2, §3, §4, §5, §6

[21] = tested on: SK-MEL-2; assay: NCI-60 screen, Melanoma; conditions: 10 μM
Experimental: as §1, §2, §3, §4, §5, §6

[22] = tested on: LOX IMVI; assay: NCI-60 screen, Melanoma; conditions: 10 μM
Experimental: as §1, §2, §3, §4, §5, §6

[23] = tested on: UACC-257; assay: NCI-60 screen, Melanoma; conditions: 10 μM
Experimental: as §1, §2, §3, §4, §5, §6

[24] = tested on: T-47D; assay: NCI-60 screen, Breast Cancer; conditions: 10 μM
Experimental: as §1, §2, §3, §4, §5, §6

[25] = tested on: MDA-MB-31/ATCC; assay: NCI-60 screen, Breast Cancer; conditions: 10 μM, MDA-MB-231/ATCC
Experimental: as §1, §2, §3, §4, §5, §6

[26] = tested on: MCF7; assay: NCI-60 screen, Breast Cancer; conditions: 10 μM
Experimental: as §1, §2, §3, §4, §5, §6

Structure (SMILES) | Percent Growth [1] [%] | Percent Growth [2] [%] | Percent Growth [3] [%] | Percent Growth [4] [%] | Percent Growth [5] [%] | Percent Growth [6] [%] | Percent Growth [7] [%] | Percent Growth [8] [%] | Percent Growth [9] [%] | Percent Growth [10] [%] | Percent Growth [11] [%] | Percent Growth [12] [%] | Percent Growth [13] [%] | Percent Growth [14] [%] | Percent Growth [15] [%] | Percent Growth [16] [%] | Percent Growth [17] [%] | Percent Growth [18] [%] | Percent Growth [19] [%] | Percent Growth [20] [%] | further results
NCCSc1cc(SCCN)c(C(F)(F)F)cc1NC(=O)c1cc(C(=O)Nc2cc(C(F)(F)F)c(SCCN)cc2SCCN)ncn1 [Compound F] | 82.85 | 96.34 | 51.7 | 99.09 | 82.57 | 57.46 | 21.48 | 20.02 | 47.68 | 69.6 | 31.42 | 48.74 | 31.93 | 7.63 | 32.41 | 62.31 | 126 | 56.34 | 18.57 | 70.62 | Percent Growth [21]: 46.77%; Percent Growth [22]: 6.66%; Percent Growth [23]: 76.46%; Percent Growth [24]: 34.11%; Percent Growth [25]: 18.87%; Percent Growth [26]: −59.97%
N=C(N)NCCCCC(=O)Nc1cc(C(F)(F)F)cc(NC(=O)Nc2ccc(NC(=O)Nc3cc(C(F)(F)F)cc(NC(=O)CCCCNC(=N)N)c3OC3CCNC3)cc2)c1OC1CCNC1 (stereo not shown) [Compound B] | 63.33 | 38.56 | 77.31 | 60.57 | 58.59 | 64.8 | 60.45 | 62.45 | 87.84 | 66.45 | 56.42 | 45.67 | 75.82 | 24.16 | 45.1 | 61.39 | 55.41 | 59.66 | 69.71 | 48.12 | Percent Growth [21]: 60.98%; Percent Growth [22]: 59.57%; Percent Growth [23]: 75.89%; Percent Growth [24]: 3.786%; Percent Growth [25]: 73.02%; Percent Growth [26]: 44.41%
N=C(N)NCCCCC(=O)Nc1cc(C(F)(F)F)cc(NC(=O)c2cc(C(=O)Nc3cc(C(F)(F)F)cc(NC(=O)CCCCNC(=N)N)c3SCCN)ncn2)c1SCCN [Compound C] | 45.62 | 4.995 | 28.12 | 24.46 | 30.11 | 65.97 | 38.3 | 53.08 | 78.06 | 69.5 | 47.81 | 73.64 | 54.2 | −39.48 | 37.88 | 33.27 | −73.2 | 17.03 | 34.39 | 35.56 | Percent Growth [21]: 54.29%; Percent Growth [22]: 50.64%; Percent Growth [23]: 61.31%; Percent Growth [24]: 14.59%; Percent Growth [25]: 81.52%; Percent Growth [26]: 10.27%
NCCc1cc(Br)cc(C#Cc2cccc(C#Cc3cc(Br)cc(CCN)c3)c2)c1 [Compound A] | −43.65 | −45.67 | −43.87 | −12.43 | 6.88 | 22.8 | 8.048 | −46.91 | −26.13 | 84.01 | 70.66 | 37.26 | 54.09 | −87.53 | −45.86 | 11.61 | 1.203 | −89.31 | −73.58 | −16.19 | Percent Growth [21]: 3.515%; Percent Growth [22]: −76.91%; Percent Growth [23]: 68.25%; Percent Growth [24]: 31.82%; Percent Growth [25]: 4.31%; Percent Growth [26]: −89.84%
c1cc(-c2ccc3sc4ccc(-c5ccnc(N6CCNCC6)c5)cc4c3c2)cc(N2CCNCC2)n1 [Compound E] | −75.28 | −70.89 | −60.7 | −64.03 | −24.59 | −16.99 | −52.46 | −69.18 | −70.65 | 75.11 | −13.76 | −41.12 | −9.443 | −87.84 | −48.52 | −54.01 | −59.52 | −87.5 | −87.3 | −84.03 | Percent Growth [21]: −73.48%; Percent Growth [22]: −80.29%; Percent Growth [23]: −70.37%; Percent Growth [24]: −12.27%; Percent Growth [25]: −41.26%; Percent Growth [26]: −89.85%

Source: patent US20120115877A1, “Facially Amphiphilic Compounds, Compositions, And Uses Thereof In Treating Cancer” (POLYMEDIX, INC., priority 2010, published 2012)
